Measurements taken from paper PMC10746053, “Development of Novel Pyrrole Derivatives and Their Cinnamic Hybrids as Dual COX-2/LOX Inhibitors” (Molecules, 2023).
Values joined by “and” are separate entries in the source; they are usually repeats but may differ in a detail not shown here. Identical values can stand only once. Like-named read-outs stand apart in the source and are kept apart here.

Assays:
[1] = cited from earlier work
[2] = biological target: T1, soybean lipoxygenase isoenzyme-1 (SLOX-1) (Glycine max, UniProt P08170); conditions: soybean LOX; read-out: LOX Inh. IC50; cited from earlier work
T1 construct: purchased Sigma Chemical, Co. (St. Louis, MO, USA)
T1 sequence (P08170 1-839): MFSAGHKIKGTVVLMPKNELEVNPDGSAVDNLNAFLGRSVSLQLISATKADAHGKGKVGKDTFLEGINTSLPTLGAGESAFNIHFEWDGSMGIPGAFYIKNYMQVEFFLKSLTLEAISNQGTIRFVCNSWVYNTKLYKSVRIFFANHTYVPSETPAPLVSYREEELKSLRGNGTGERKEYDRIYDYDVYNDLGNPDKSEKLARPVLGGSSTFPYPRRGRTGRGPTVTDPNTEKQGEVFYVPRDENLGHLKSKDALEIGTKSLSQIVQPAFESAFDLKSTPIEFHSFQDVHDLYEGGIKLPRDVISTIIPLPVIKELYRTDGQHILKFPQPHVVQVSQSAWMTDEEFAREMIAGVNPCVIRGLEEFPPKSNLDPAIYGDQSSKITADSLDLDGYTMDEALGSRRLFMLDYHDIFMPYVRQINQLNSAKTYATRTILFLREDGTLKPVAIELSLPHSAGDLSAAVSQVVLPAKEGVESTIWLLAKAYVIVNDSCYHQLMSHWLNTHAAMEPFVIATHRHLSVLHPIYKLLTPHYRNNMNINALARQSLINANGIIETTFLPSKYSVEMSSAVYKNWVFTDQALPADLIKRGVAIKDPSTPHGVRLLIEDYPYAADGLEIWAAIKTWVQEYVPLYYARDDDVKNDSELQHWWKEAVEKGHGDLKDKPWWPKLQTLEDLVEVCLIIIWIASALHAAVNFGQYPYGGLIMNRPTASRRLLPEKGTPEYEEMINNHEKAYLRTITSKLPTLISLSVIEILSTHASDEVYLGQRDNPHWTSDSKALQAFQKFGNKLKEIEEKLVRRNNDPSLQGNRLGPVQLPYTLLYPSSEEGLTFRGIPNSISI

[3] = set-up: method as in doi:10.3390/M1314; conditions: Molinspiration software; cited from earlier work
ovine COX-2 [4] = biological target: T2, ovine COX-2 (Ovis aries, UniProt P79208); set-up: purchased Cayman; conditions: read-out: COX-2 Inh. IC50; cited from earlier work
T2 sequence (P79208 17-603): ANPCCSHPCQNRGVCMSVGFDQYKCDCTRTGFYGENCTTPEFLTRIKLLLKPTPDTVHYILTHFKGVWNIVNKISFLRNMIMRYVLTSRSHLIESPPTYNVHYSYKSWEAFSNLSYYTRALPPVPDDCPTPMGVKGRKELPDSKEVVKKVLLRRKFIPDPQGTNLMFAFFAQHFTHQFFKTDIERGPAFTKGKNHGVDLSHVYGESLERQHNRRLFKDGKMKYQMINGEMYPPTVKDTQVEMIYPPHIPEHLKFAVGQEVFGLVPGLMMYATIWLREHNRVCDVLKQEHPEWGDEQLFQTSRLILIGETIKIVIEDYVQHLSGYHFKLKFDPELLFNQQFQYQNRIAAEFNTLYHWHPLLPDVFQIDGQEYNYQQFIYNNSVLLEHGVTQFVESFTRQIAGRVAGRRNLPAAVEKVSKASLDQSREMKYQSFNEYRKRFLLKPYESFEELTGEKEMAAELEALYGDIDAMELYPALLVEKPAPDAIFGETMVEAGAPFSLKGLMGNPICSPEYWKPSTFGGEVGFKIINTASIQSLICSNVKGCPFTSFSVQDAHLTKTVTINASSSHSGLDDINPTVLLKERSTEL

[5] = set-up: method as in doi:10.3390/M1314; conditions: RPTLC; cited from earlier work
[6] = Inhibition of linoleic acid lipid peroxidation (AAPH); conditions: 37 °C, ± SD
From the text: It is widely known that oxidative stress can induce lipid peroxidation. One of the major end products of the latter process are lipid-derived aldehydes, such as malondialdehyde (MDA), which is more chemically stable and membrane-permeable than ROS. These lipid aldehydes can participate in cross-linking with DNA and proteins and subsequently facilitate the development of various pathological states. Herein, we used the water-soluble 2,2′-azobis(2-methylpropionamidine) dihydrochloride (AAPH) as a free radical initiator for the in vitro antioxidant assay due to its ability to generate alkylperoxy radicals in the presence of oxygen molecules at 37 °C [53]. […] Pyrroles 1 and 2 with high lipophilicity (ClogP of 1 = 5.7, ClogP of 2 = 5.05; RM of 1 = 0.3076, RM of 2 = 0.0116) and molecular volume (MV of 1 = 318, MV of 2 = 290) values appeared to be weak antioxidants (34% and 33% at 100 μM, respectively). […] The presence of a bulkier substituent Ar^2 decreased the anti-lipid peroxidation activity of 5 (36% at 100 μM) compared to 8 (58% at 100 μM).
In vitro enzymatic assay was conducted as reported in previous studies. 2,2′-Azobis(2-methylpropionamidine) dihydrochloride (AAPH) was used as a controllable source of thermally produced alkylperoxy free radicals. The production of conjugated diene hydroperoxides via the oxidation of sodium linoleate in an aqueous dispersion at 37 °C was monitored at 234 nm. The results were compared to the reference compound, trolox (93%) (Table 2).

[7] = biological target: T1, soybean lipoxygenase isoenzyme-1 (SLOX-1); experiment: Inhibition of soybean lipoxygenase in vitro; assay type: biochemical; conditions: soybean LOX; for IC50: pH 9.00, ± SD, read-out: LOX Inh. IC50
Description: In vitro anti-LOX activities were measured against soybean lipoxygenase isoenzyme-1 (SLOX-1), which is widely used as a model for mammalian LOXs.
An in vitro study was conducted as reported previously. The tested compounds were dissolved in DMSO (100 µM) and incubated at room temperature with sodium linoleate (0.1 mL) as a substrate and 0.2 mL of a soybean lipoxygenase solution in a buffer solution of Tris:HCl (pH 9.00).

[8] = Experimental lipophilicity as RM values by reversed-phase TLC; assay type: physicochemical; conditions: RPTLC, methanol/water 70/30 v/v, five measurements
From the text: Lipophilicity is one of the most studied physicochemical properties in the drug discovery process and is frequently employed in structure–activity relationship (SAR) studies. It contributes to the ADMET (absorption, distribution, metabolism, excretion, toxicity) properties, solubility, permeability to the potency and efficacy of drugs. […] In TLC, the retention parameter, RF, is defined as the ratio between the migration distances of the compound and of the mobile phase, both measured from the sample application position. The term RM was introduced to facilitate a linear relationship with the log P values, and it is defined as similar to the capacity factor, k, in HPLC.
Reversed-phase thin-layer chromatography (RPTLC) was used for the determination of RM values. Silica gel plates were saturated with 5% v/v liquid paraffin in petroleum ether. The mobile phase consisted of a methanol/water mixture (70/30, v/v). The plates were developed in closed chromatography tanks saturated with the mobile phase. Spots were detected under UV light or after exposure to iodine vapor. RM values were calculated from the corresponding Rf values (from five individual measurements) using […]. RM = log[(1/Rf) − 1], (2) where Rf is obtained by dividing the distance covered by the sample by the distance covered by the mobile phase.

ovine COX-2 [9] = biological target: T2, ovine COX-2; experiment: Inhibition of ovine cyclooxygenase-2 (TMPD co-substrate); conditions: for inhibition at 100 µM: read-out: COX-2 Inh. % at 100 μM, 100 μM, ovine COX-2
Description: The oxidized TMPD has an absorbance maximum at 590 nm. COXs require heme (Fe^3+-protoporphyrin IX) as a cofactor which may dissociate from the protein during its purification. Therefore, in the in vitro enzymatic assay of ovine COX-2 inhibition, heme is added to ensure maximal enzyme activity [54]. […] The in vitro COX-2 inhibitory activity was determined using arachidonic acid (AA) as a substrate and N,N,N′,N′-tetramethyl-p-phenylenediamine (TMPD) as a co-substrate in a buffer solution of Tris:HCl (pH 8.5) [27]. Ten microliters of the DMSO solution of the compound of interest were added in a test tube containing 730 μL of buffer Tris:HCl (pH 8.5), 50 μL of heme, 10 μL of COX-2 and 100 μL of TMPD. […] A blank determination was used first to serve as a negative control.

COX-1 = conditions: Figure 1; cited from earlier work
5-LOX = conditions: Figure 1; cited from earlier work
COX-2 = conditions: Figure 1; cited from earlier work
paw edema = conditions: Figure 1; cited from earlier work

O=C(O)/C=C/c1ccccc1 [Cinnamic acid, reference compound]
ILP % at 100 μM (inhibition of lipid peroxidation) [1]: 78 ± 3.2%

O=C(c1ccccc1)c1c[nH]cc1-c1ccccc1 [compound 4]
IC50 [2]: 100 ± 3.3 µM
miLogP [3]: 3.96
IC50 (ovine COX-2 [4]): 0.65 ± 0.1 µM
ILP % at 100 μM (inhibition of lipid peroxidation) ([1]; 100 µM): 44% and 44.3 ± 1.1%
RM [5]: −0.4102

CN(C)c1ccc(-c2c[nH]cc2C(=O)c2ccc(Cl)cc2)cc1 [compound 2, (4-chlorophenyl) (4-(4-(dimethylamino)phenyl)-1H-pyrrol-3-yl) methanone]
ILP % at 100 μM (inhibition of lipid peroxidation) ([6]; 100 µM): 33% and 32.8 ± 0.8%
IC50 [7]: 7.5 ± 0.5 µM
RM [8]: 0.0116
inhibition at 100 µM (ovine COX-2 [9]): 17%

CN(C)c1ccc(-c2c[nH]cc2C(=O)c2cccs2)cc1 [compound 3, (4-(4-(dimethylamino)phenyl)-1H-pyrrol-3-yl) (thiophen-2-yl) methanone]
ILP % at 100 μM (inhibition of lipid peroxidation) [6]: inactive
ILP % at 100 μM (inhibition of lipid peroxidation) ([6]; 100 µM): no action at all and no
inhibition at 100 µM ([7]; pH 9, 100 μM, pH 9.00, read-out: LOX Inh. % at 100 μM): 43%
RM [8]: −0.3340
inhibition at 100 µM (ovine COX-2 [9]): 12%

Cc1c(C)c2c(c(C)c1O)CCC(C)(C(=O)O)O2 (centres unmarked) [Trolox, reference compound]
ILP % at 100 μM (inhibition of lipid peroxidation) [6]: 93 ± 2.5%

CN(C)c1ccc(-c2cn(C(=O)/C=C/c3ccccc3)cc2C(=O)c2ccc(Cl)cc2)cc1 [compound 6, (E)-1-(3-(4-chlorobenzoyl)-4-(4-(dimethylamino)phenyl)-1H-pyrrol-1-yl)-3-phenylprop-2-en-1-one]
ILP % at 100 μM (inhibition of lipid peroxidation) ([6]; 100 µM): 62% and 61.6 ± 2.3%
IC50 [7]: 27.5 ± 1.3 µM
RM [8]: −0.4771
IC50 (ovine COX-2 [9]): 7 ± 0.6 µM

COc1cc(/C=c2\c(=O)[nH]n3c(=O)c4ccccc4nc23)cc(OC)c1OC [I]
IC50 (COX-1): 0.668 ± 0.0212 µM
IC50 (5-LOX): 2.3 ± 0.13 µM
IC50 (COX-2): 0.047 ± 0.0027 µM

CN(C)c1ccc(/C=C/c2c[nH]cc2C(=O)c2ccc(Cl)cc2)cc1 [compound 1, (E)-(4-chlorophenyl) (4-(4-(dimethylamino)styryl)-1H-pyrrol-3-yl)methanone]
ILP % at 100 μM (inhibition of lipid peroxidation) ([6]; 100 µM): 34% and 33.8 ± 1.3%
IC50 [7]: 51.5 ± 1.7 µM
RM [8]: 0.3076
IC50 (ovine COX-2 [9]): 10 ± 0.8 µM

COc1ccc(C=NNC(=O)c2sc3ccccc3c2Cl)cc1OC [III]
IC50 (COX-1): 2.9 µM
IC50 (5-LOX): 1.87 µM
IC50 (COX-2): 0.68 µM
% paw edema reduction (in vivo) (paw edema): 89.8%

CN(C)c1ccc(-c2cn(C(=O)/C=C/c3ccccc3)cc2C(=O)c2cccs2)cc1 [compound 7, (E)-1-(3-(4-(dimethylamino)phenyl)-4-(thiophene-2-carbonyl)-1H-pyrrol-1-yl)-3-phenylprop-2-en-1-one]
ILP % at 100 μM (inhibition of lipid peroxidation) ([6]; 100 µM): 31% and 31.1 ± 1.1%
IC50 [7]: 35 ± 1.6 µM
IC50 (ovine COX-2 [9]): 7.2 ± 0.3 µM

CN(C)c1ccc(/C=C/c2cn(C(=O)/C=C/c3ccccc3)cc2C(=O)c2ccccc2)cc1 [compound 5, (E)-1-(3-benzoyl-4-((E)-4-(dimethylamino)styryl)-1H-pyrrol-1-yl)-3-phenylprop-2-en-1-one]
ILP % at 100 μM (inhibition of lipid peroxidation) ([6]; 100 µM): 36% and 36.4 ± 0.4%
IC50 [7]: 30 ± 1.6 µM
RM [8]: −0.4174
IC50 (ovine COX-2 [9]): 0.55 ± 0.3 µM

COc1ccc(/C=C2\SC(=S)N(NC(=O)c3sc4ccccc4c3Cl)C2=O)cc1OC [II]
IC50 (COX-1): 3.4 µM
IC50 (5-LOX): 2.33 µM
% paw edema reduction (in vivo) (paw edema): 93.26%

Cc1ccc(C(C)C)c(O)c1/C=N/NC(=O)c1cc(-c2ccccc2)n[nH]1 [IV]
IC50 (COX-1): 10.3 ± 0.1 µM
IC50 (5-LOX): 3.05 ± 0.067 µM
IC50 (COX-2): 0.068 ± 0.01 µM
% paw edema reduction (in vivo) (paw edema): 81.93%

O=C(c1ccccc1)c1cn(C(=O)/C=C/c2ccccc2)cc1-c1ccccc1 [compound 8, (E)-1-(3-Benzoyl-4-Phenyl-1H-Pyrrol-1-Yl)-3-Phenylprop-2-En-1-One]
IC50 [2]: 39 ± 2.3 µM
miLogP [3]: 6.26
IC50 (ovine COX-2 [4]): 6 ± 0.1 µM
ILP % at 100 μM (inhibition of lipid peroxidation) ([1]; 100 µM): 58% and 58.1 ± 1.8%
RM [5]: −0.4771
